Assay results published in the OPERA property sets (Mansouri et al. 2018).

Settings: not given

Going from `CCC(C)(C)C(C)C(C)C` (stereo not drawn) to `CC(C)CCC(C)(C)O`, the boiling point falls from 162 °C to 154 °C.

Going from `CC(Cl)CCl` (stereo not drawn) to `C#CCC(C)C`, the boiling point falls from 95.5 °C to 61.2 °C.

First: C/C=C(\C)C(=O)OC
Second: CCOC(=O)CCC(C)=O
The boiling point of the first is lower: 139 °C for the first, 206 °C for the second.

First: C=C(C)CCCCC
Second: CCCCCCCCCF
The boiling point of the first is lower: 119 °C for the first, 168 °C for the second.

Compared with `CCOCC(=O)Cl`, `CC(C)CCC(C)O` (stereo not drawn) is higher in boiling point: 125 °C for the first, 151 °C for the second.

Compared with `O=C1CCCCC1C1=CCCCC1` (stereo not drawn), `C1CSCCN1` is lower in boiling point: 265 °C for the first, 175 °C for the second.

Going from `FC(F)(F)C(F)(F)C(F)(F)N(C(F)(F)C(F)(F)C(F)(F)F)C(F)(F)C(F)(F)C(F)(F)F` to `Clc1c(Cl)c(Cl)c2c(c1Cl)Oc1c(Cl)c(Cl)c(Cl)c(Cl)c1O2`, the boiling point rises from 130 °C to 510 °C.

Going from `CC(=O)c1ccncc1` to `Cc1ccc(Cl)c(C)c1`, the boiling point falls from 212 °C to 184 °C.

Compared with `CCCCCCCCCCCCS`, `ClCCCI` is lower in boiling point: 274 °C for the first, 171 °C for the second.

Compared with `Cc1cc(C)c(Br)c(C)c1`, `CC(C)SSC(C)C` is lower in boiling point: 225 °C for the first, 177 °C for the second.

Compared with `CC(Cl)CCl` (stereo not drawn), `CC(=O)c1ccncc1` is lower in log10 Henry constant (atm·m³/mol): -2.55 for the first, -7.2 for the second.

Going from `CC(Cl)CCl` (stereo not drawn) to `Clc1c(Cl)c(Cl)c2c(c1Cl)Oc1c(Cl)c(Cl)c(Cl)c(Cl)c1O2`, the log10 Koa rises from 2.96 to 12.1.

First: CC(Cl)CCl (stereo not drawn)
Second: CCOP(=O)(NC(C)C)Oc1ccc(SC)c(C)c1 (stereo not drawn)
The log10 Koc (L/kg) of the first is lower: 1.67 for the first, 2.51 for the second.

First: C[Si](Cn1cncn1)(c1ccc(F)cc1)c1ccc(F)cc1
Second: COc1cc(OC)nc(NC(=O)NS(=O)(=O)c2c(-c3nnn(C)n3)cnn2C)n1
The log10 Koc (L/kg) of the first is higher: 3.22 for the first, 1.89 for the second.

`CN(C)c1nc(=O)n(C2CCCCC2)c(=O)n1C` gave a log10 Koc (L/kg) of 1.73.

First: CC(Cl)CCl (stereo not drawn)
Second: CC(C)CCC(C)O (stereo not drawn)
The log10 vapour pressure (mmHg) of the first is higher: 1.73 for the first, 0.307 for the second.

Compared with `C[Si]1(C)O[Si](C)(C)O[Si](C)(C)O[Si](C)(C)O[Si](C)(C)O[Si](C)(C)O[Si](C)(C)O1`, `CCOP(=O)(NC(C)C)Oc1ccc(SC)c(C)c1` (stereo not drawn) is lower in log10 vapour pressure (mmHg): -1.95 for the first, -6 for the second.

Compared with `C=C(C)CCCCC`, `CCOC(=O)CCC(C)=O` is lower in log10 vapour pressure (mmHg): 1.3 for the first, -0.682 for the second.

Going from `CCCSP(=O)(OCC)Oc1cnn(-c2ccc(Cl)cc2)c1` (stereo not drawn) to `Clc1ccc(C2(Cn3cncn3)CC(Br)CO2)c(Cl)c1` (stereo not drawn), the log10 vapour pressure (mmHg) rises from -7.92 to -7.52.

Going from `c1ccc2c(c1)Cc1cc3ccccc3cc1-2` to `COc1cc(OC)nc(NC(=O)NS(=O)(=O)c2c(-c3nnn(C)n3)cnn2C)n1`, the log10 vapour pressure (mmHg) falls from -7.26 to -10.5.

Compared with `CCCCCCCCCCCCS`, `CCN(CC)C(=O)n1cnc(S(=O)(=O)c2c(C)cc(C)cc2C)n1` is lower in log10 vapour pressure (mmHg): -2.07 for the first, -10.6 for the second.

Compared with `CN(C)c1nc(=O)n(C2CCCCC2)c(=O)n1C`, `Clc1c(Cl)c(Cl)c2c(c1Cl)Oc1c(Cl)c(Cl)c(Cl)c(Cl)c1O2` is lower in log10 vapour pressure (mmHg): -6.65 for the first, -12.1 for the second.

Compared with `CC(Cl)CCl` (stereo not drawn), `C#CCC(C)C` is lower in melting point: -100 °C for the first, -105 °C for the second.

Going from `CC(C)COC(=O)C(C)Oc1ccc(Oc2ccc(Cl)cc2)cc1` (stereo not drawn) to `Oc1ccc(Cl)cc1Sc1cc(Cl)ccc1O`, the melting point rises from 39.5 °C to 174 °C.

Going from `C[Si]1(C)O[Si](C)(C)O[Si](C)(C)O[Si](C)(C)O[Si](C)(C)O[Si](C)(C)O[Si](C)(C)O1` to `C[Si]1(c2ccccc2)O[Si](C)(c2ccccc2)O[Si](C)(c2ccccc2)O1` (stereo not drawn), the melting point rises from -26 °C to 100 °C.

Compared with `CCOP(=O)(NC(C)C)Oc1ccc(SC)c(C)c1` (stereo not drawn), `COc1ccc2c(c1)CCCC2=O` is higher in melting point: 49 °C for the first, 78 °C for the second.

Going from `O=C1CN=C(c2ccccc2)c2cc(Cl)ccc2N1CC1CC1` to `c1ccc2c(c1)Cc1cc3ccccc3cc1-2`, the melting point rises from 146 °C to 212 °C.

First: C=C(C)CCCCC
Second: CCCCCCCCCF
The melting point of the first is lower: -90 °C for the first, 1 °C for the second.

First: O=C1OC(c2ccc(O)c3ccccc23)(c2ccc(O)c3ccccc23)c2ccccc21
Second: O=[N+]([O-])c1ccccc1Sc1ccccc1
The melting point of the first is higher: 254 °C for the first, 82 °C for the second.

Compared with `O=C1CCCCC1C1=CCCCC1` (stereo not drawn), `CN(C)c1nc(=O)n(C2CCCCC2)c(=O)n1C` is higher in melting point: -78 °C for the first, 116 °C for the second.

Compared with `CNC[C@H](O)c1ccc(O)c(O)c1.O=C(O)[C@H](O)[C@@H](O)C(=O)O`, `COC(=O)c1cccc(Cl)c1` is lower in melting point: 150 °C for the first, 21 °C for the second.

Going from `CCCCC(=O)O[C@]1(C(=O)CO)CC[C@H]2[C@@H]3CCC4=CC(=O)CC[C@]4(C)[C@H]3[C@@H](O)C[C@@]21C` to `C[C@@H]1O[C@@H](O[C@H]2C[C@@H](O)[C@]3(CO)[C@H]4[C@H](O)C[C@]5(C)[C@@H](C6=CC(=O)OC6)CC[C@]5(O)[C@@H]4CC[C@]3(O)C2)[C@H](O)[C@H](O)[C@H]1O`, the melting point falls from 218 °C to 200 °C.

Compared with `FC(F)(F)C(F)(F)C(F)(F)N(C(F)(F)C(F)(F)C(F)(F)F)C(F)(F)C(F)(F)C(F)(F)F`, `NS(=O)(=O)c1cc2c(cc1C(F)(F)F)NCNS2(=O)=O` is higher in melting point: -52 °C for the first, 270 °C for the second.

First: CN(C)c1ccccc1[N+](=O)[O-]
Second: O=[N+]([O-])c1cc[n+]([O-])c2ccccc12
The melting point of the first is lower: -20 °C for the first, 154 °C for the second.

Going from `Cc1ccc(O)cn1` to `NC(=O)c1ccc(N)nc1`, the melting point rises from 169 °C to 246 °C.

Going from `C[Si](Cn1cncn1)(c1ccc(F)cc1)c1ccc(F)cc1` to `Clc1ccc(C2(Cn3cncn3)CC(Br)CO2)c(Cl)c1` (stereo not drawn), the melting point rises from 54 °C to 84 °C.

First: NCCS(=O)(=O)O
Second: CCN(CC)C(=O)n1cnc(S(=O)(=O)c2c(C)cc(C)cc2C)n1
The melting point of the first is higher: 328 °C for the first, 115 °C for the second.

Going from `CC(=O)c1ccncc1` to `O=C(O)c1cccc2c(Cl)cccc12`, the melting point rises from 16 °C to 245 °C.

First: CCCCCCCCCCCCS
Second: BrCCCCCCCCCCCCCCBr
The melting point of the first is lower: -8 °C for the first, 50.4 °C for the second.

Compared with `COC(=O)C1=C(C)NC(C)=C(C(=O)OC)C1c1ccccc1[N+](=O)[O-]`, `CCC(C)C(=O)NC1CCC(=O)N(CCc2ccccc2)C1=O` (stereo not drawn) is lower in melting point: 173 °C for the first, 108 °C for the second.

First: COc1cc(OC)nc(NC(=O)NS(=O)(=O)c2c(-c3nnn(C)n3)cnn2C)n1
Second: O=[N+]([O-])c1cc(S(=O)(=O)c2ccc(F)c([N+](=O)[O-])c2)ccc1F
The melting point of the first is lower: 170 °C for the first, 194 °C for the second.

Compared with `Cc1cc(C)c(Br)c(C)c1`, `Cc1ccc(Cl)c(C)c1` is lower in melting point: -1 °C for the first, -32.5 °C for the second.

Compared with `C=C(C)C(=O)C(=CC(=O)O)OC`, `C#CC(C)(CC)OC(N)=O` (stereo not drawn) is lower in melting point: 83 °C for the first, 55.8 °C for the second.

First: CC(C)SSC(C)C
Second: Clc1c(Cl)c(Cl)c2c(c1Cl)Oc1c(Cl)c(Cl)c(Cl)c(Cl)c1O2
The melting point of the first is lower: -69 °C for the first, 330 °C for the second.

With `O=c1[nH]c(=O)n([C@H]2C[C@H](O)[C@@H](CO)O2)cc1F` the melting point was 150 °C.

With `CC(Cl)CCl` (stereo not drawn) the ready biodegradability was “not readily biodegradable”.
With `O=C1CCCCC1C1=CCCCC1` (stereo not drawn) the ready biodegradability was “not readily biodegradable”.
For `BrC(Br)c1ccccc1OCC1CO1` (stereo not drawn), the ready biodegradability was “not readily biodegradable”.

Same assay, conditions: fish

Going from `O=P(Oc1ccccc1)(Oc1ccccc1)Oc1ccccc1` to `CNc1cccc(C)c1`, the log10 BCF falls from 2.28 to 0.86.

Compared with `CC(Cl)CCl` (stereo not drawn), `Clc1c(Cl)c(Cl)c2c(c1Cl)Oc1c(Cl)c(Cl)c(Cl)c(Cl)c1O2` is higher in log10 BCF: 0.85 for the first, 3.12 for the second.

Work on `O=C1CCCCC1C1=CCCCC1` (stereo not drawn) yielded a log10 BCF of 0.7.

First: O=P(Oc1ccccc1)(Oc1ccccc1)Oc1ccccc1
Second: c1ccc2c(c1)Cc1cc3ccccc3cc1-2
The log10 biotransformation half-life (days) of the first is lower: -0.76 for the first, -0.39 for the second.

Going from `CNc1cccc(C)c1` to `Clc1cc(Cl)c(Cl)c(-c2c(Cl)c(Cl)c(Cl)c(Cl)c2Cl)c1Cl`, the log10 biotransformation half-life (days) rises from -0.79 to 2.63.

First: CC(Cl)CCl (stereo not drawn)
Second: Clc1c(Cl)c(Cl)c2c(c1Cl)Oc1c(Cl)c(Cl)c(Cl)c(Cl)c1O2
The log10 biotransformation half-life (days) of the first is lower: -1.06 for the first, 1.16 for the second.

For `C[Si]1(C)O[Si](C)(C)O[Si](C)(C)O[Si](C)(C)O[Si](C)(C)O[Si](C)(C)O[Si](C)(C)O1`, the log10 biotransformation half-life (days) was 1.48.
